According to patent US20100130516A1, “PURINYL DERIVATIVES AND THEIR USE AS POTASSIUM CHANNEL MODULATORS” (NeuroSearch A/S, priority 2007, published 2010):

Molecular target: T1, hSK3 channels (Homo sapiens, UniProt Q9UGI6)
T1 construct: expressed in transfected cells; host or cells: HEK293
Assay: Whole-cell patch-clamp recording of ionic current through SK channels (subtype 3)
Assay type: cell-based
Conditions: HEK293 cells expressing hSK3 channels
Protocol: The ionic current through small-conductance Ca^2+-activated K^+ channels (SK channels, subtype 3) is recorded using the whole-cell configuration of the patch-clamp technique in a classic patch-clamp set-up using HEK293 tissue culture cells expressing hSK3 channels as described in e.g. WO 2006/100212.
The SC100 value determined is defined as the Stimulating Concentration required for increasing the baseline current by 100%. The below SC100 value is an indication of the SK3 activating properties of the compound of the invention.

**Q.** `Cc1ccn(-c2nc(Nc3ccc(F)c(F)c3)c3ncn(C)c3n2)n1` [Compound 5.1, (3,4-Difluoro-phenyl)-[9-methyl-2-(3-methyl-pyrazol-1-yl)-9H-purin-6-yl]-amine] was tested. Which “SC100 (Stimulating Concentration required for increasing the baseline current by 100%)” value did it give?
**A.** The value was 0.04 µM.
